Four compounds from article PMC12851007 (Angewandte Chemie (International Ed. in English), 2025) can be followed below.

A word on the EC50: it is the concentration needed to bring the measured effect to its halfway point.

Experiment [1] in a line: Dual-channel assay, CX4/LCG channel, POPC vesicles. The class given is in vitro ADME. The note with it: 175 mM glucose; for EC50: 12.5 µM POPC⸧CX4/LCG-LUVs and 12.5 µM POPC⸧CF-LUVs in 10 mM Hepes, pH 7.5, 25 °C, λexc 369/λem 475 nm, error = SD of fit, n = 1; for membrane activity in the CX4/LCG channel compared with the CF channel: dual-channel, seven independent POPC LUV batches (n = 7), penetratin 15 µM, Pep-1 10 µM, LRLLRW 30 µM, TP10 0.15 µM, 10 mM Hepes, pH 7.5, t-test/ANOVA p < 0.001, melittin: Figure S35 and Table S9. An excerpt: With the established identical extravesicular conditions in both assays, we further envisaged a simultaneous measurement of both assays within the same solution to enhance the comparability of the measurements. This became possible after optimization of the excitation and emission wavelengths. […] A further optimization was required, because the dye concentrations in the CF assay and the CX4/LCG assay are largely different.^[ [51], [52] ^] Consequently, simultaneous monitoring requires the detection of a low amount of LCG in the presence of a high concentration of the much more brightly fluorescent CF, which challenges the dynamic range of a typical fluorescence spectrometer in a dual‐channel measurement. To reduce the fluorescence read‐out of CF, the excitation wavelength was shifted from the absorption maximum at ca. 490 nm to 525 nm, where CF has a much lower absorbance, and the emission in the CF channel was shifted from its maximum at ca. 515 nm to 545 nm to further reduce the fluorescence of CF. To maintain a high LCG fluorescence, excitation was performed at the absorption maximum at 369 nm. Since CF has a residual absorbance at this excitation wavelength, emission in the LCG channel was monitored at 475 nm instead of 502 nm to eliminate spill‐over of CF fluorescence into the LCG channel. […]
Time-dep endent fluores cence intensit y traces, I (t), were subsequentl y normalized to fractional intensities, If(t), using equation (1) and the concentration- dependent fractional intensities just before the addition of th e calibration co cktail, I f, w ere then normaliz ed to fr actional membran e activities, Y, using equation (2). The fractional membrane activities, Y, were subsequently plotted against the peptide concentration, c, and anal ysed using the Hill equation (3) to obtain the effective molar concentration, EC 50, and the Hill coefficient, n. For peptides with too low activity to determine Y max ex perimentall y, Y max was fixed at 1.0 during fitting. […]
Dual-Channel Measurements
Vesicles w ere prep ared a s described abov e (se e en try (4) in Table S2 and entry (3) in Table S3) and eluted with freshl y prepared 10 mM Hepes, 175mM glucos e, pH 7.5 i n the size exclusion chromatograph y. For the measurements, an approp riate volume o f the liposome stock solutions was diluted to 2m L in a 10× 10 mm PS cuvette wi th 10 mM Hep es bu ffer and 175 mM glucos e at pH 7.5 to afford 12.5µM POPC ⊃CX4/LCG-LUVs and 12.5 µM POPC⊃CF-LUVs (25 µM POPC total). The cuvette was placed into a thermostatted fluorimeter sample holder at 25.0 °C and gentl y stirred at 300 rpm. The fluorescence intensity w as simultaneous l y r eco rded in the CF chann el ( λ exc = 525 nm, λ em = 545 nm) and in the LCG channel ( λ exc = 369 nm, λ em = 475 nm) with an ex citation slit width of 5 nm and an emission slit width of 5 n m during addition of 20 µL peptide stock solution of varying concentrations at 60 s and 20 µL of a calibration

The nature of experiment [2]: Dual-channel assay, CF channel, POPC/POPS vesicles. Particulars: 12.5 µM POPC/POPS(9:1)⸧CX4/LCG-LUVs and 12.5 µM POPC/POPS(9:1)⸧CF-LUVs in 10 mM Hepes, 175 mM glucose, pH 7.5; error = SD of fit, n = 1. The class given is biochemical. From the text:
Ultimately, we have also tested the new conditions with vesicles containing the anionic lipid 1‐palmitoyl‐2‐oleoyl‐phosphatidylserine (POPS) with TP10, Pep‐1, and the LRLLRW peptide (Figures S41–S43 and Table S11). The results confirmed that the absolute activity as well as the difference between the CF dye efflux assay and the tandem membrane assay was nearly unaffected by the presence of 10% POPS with the only exception that the membrane‐translocating ability of TP10 was enhanced.
Assay protocol. An appropriate volume of the liposome stock solutions was diluted to 2 mL with outside buffer in a 10 ×10 mm quartz glass cuvette to afford a phospholipid concentration of 25 µM. The cuvette was placed into a thermostatted fluorimeter sample holder and gentl y stirred at 300 rpm at (25.0± 0.1) °C. Subsequentl y, the time-dependent change in fluorescence intensity (C F: λ exc = 492 nm, λ em = 517 nm) was recorded during addition of 20 µL peptide stock solution of var ying concentrations at 60 s and 20µ L of a calibration cocktail (1. 6% […]
Time-dep endent fluores cence intensit y traces, I (t), were subsequentl y normalized to fractional intensities, If(t), using equation (1) and the concentration- dependent fractional intensities just before the addition of th e calibration co cktail, I f, w ere then normaliz ed to fr actional membran e activities, Y, using equation (2). […]
Vesicles w ere prep ared a s described abov e (se e en try (4) in Table S2 and entry (3) in Table S3) and eluted with freshl y prepared 10 mM Hepes, 175mM glucos e, pH 7.5 i n the size exclusion chromatograph y. […] The fluorescence intensity w as simultaneous l y r eco rded in the CF chann el ( λ exc = 525 nm, λ em = 545 nm) and in the LCG channel ( λ exc = 369 nm, λ em = 475 nm) with an ex citation slit width of 5 nm and an emission slit width of 5 n m during addition of 20 µL peptide stock solution of varying concentrations at 60 s and 20 µL of a calibration

The structures appear in SMILES notation. Where a SMILES comes first, the peptide text is derived from it.

`CC[C@H](C)[C@H](NC(=O)[C@H](CCCCN)NC(=O)[C@@H](NC(=O)[C@@H](N)CCC(N)=O)[C@@H](C)CC)C(=O)N[C@@H](Cc1c[nH]c2ccccc12)C(=O)N[C@@H](Cc1ccccc1)C(=O)N[C@@H](CCC(N)=O)C(=O)N[C@@H](CC(N)=O)C(=O)N[C@@H](CCCNC(=N)N)C(=O)N[C@@H](CCCNC(=N)N)C(=O)N[C@@H](CCSC)C(=O)N[C@@H](CCCCN)C(=O)N[C@@H](Cc1c[nH]c2ccccc12)C(=O)N[C@@H](CCCCN)C(=O)N[C@@H](CCCCN)C(=O)O` (H-QIKIWFQNRRMKWKK-OH): in experiment [1], the midpoint of the response, the EC50, lay at 28 ± 2 µM and the “membrane activity in the CX4/LCG channel compared with the CF channel” value is on record as “significantly higher”.

Take `CC(C)C[C@H](NC(=O)[C@H](CC(C)C)NC(=O)[C@H](CCCNC(=N)N)NC(=O)[C@@H](N)CC(C)C)C(=O)N[C@@H](CCCNC(=N)N)C(=O)N[C@@H](Cc1c[nH]c2ccccc12)C(N)=O` [LRLLRW] (H-LRLLRW-NH2): the results for the EC50 in experiment [1] and in experiment [2] were 9 ± 0.9 µM and 28 ± 10 µM, respectively. Also, in experiment [1], the “membrane activity in the CX4/LCG channel compared with the CF channel” value is listed as “significantly higher”.

Consider `CC(C)[C@H](NC(=O)[C@H](CCCCN)NC(=O)[C@H](CCCNC(=N)N)NC(=O)[C@H](CCCCN)NC(=O)[C@H](CCCCN)NC(=O)[C@H](CCCCN)NC(=O)[C@@H]1CCCN1C(=O)[C@H](CCC(N)=O)NC(=O)[C@H](CO)NC(=O)[C@H](Cc1c[nH]c2ccccc12)NC(=O)[C@H](CC(=O)O)NC(=O)[C@@H](NC(=O)[C@H](Cc1c[nH]c2ccccc12)NC(=O)[C@H](Cc1c[nH]c2ccccc12)NC(=O)[C@@H](NC(=O)[C@H](CC(=O)O)NC(=O)[C@H](Cc1c[nH]c2ccccc12)NC(=O)[C@H](Cc1c[nH]c2ccccc12)NC(=O)[C@@H](NC(=O)[C@H](CC(=O)O)NC(=O)[C@@H](N)CCCCN)[C@@H](C)O)[C@@H](C)O)[C@@H](C)O)C(=O)O` [Pep‐1] (H-KDTWWDTWWTDWSQPKKKRKV-OH), for which, in experiment [1], the EC50 was determined as 22 ± 16 µM and the “membrane activity in the CX4/LCG channel compared with the CF channel” value is “significantly higher”. In experiment [2], this compound showed an EC50 of 698 ± 55 µM.

Consider `CC[C@H](C)[C@H](NC(=O)[C@H](CCCCN)NC(=O)[C@H](CCCCN)NC(=O)[C@H](C)NC(=O)[C@H](CC(C)C)NC(=O)[C@H](C)NC(=O)[C@H](C)NC(=O)[C@H](CC(C)C)NC(=O)[C@H](C)NC(=O)[C@H](CCCCN)NC(=O)[C@H](CC(C)C)NC(=O)[C@H](CC(N)=O)NC(=O)[C@@H](NC(=O)[C@H](CCCCN)NC(=O)CNC(=O)[C@H](CC(C)C)NC(=O)[C@H](CC(C)C)NC(=O)[C@H](Cc1ccc(O)cc1)NC(=O)CNC(=O)[C@H](C)N)[C@@H](C)CC)C(=O)N[C@@H](CC(C)C)C(=O)O` [TP10], for which the results for the EC50 in experiment [1] and in experiment [2] were 0.78 ± 0.09 µM and 0.027 ± 0.002 µM, respectively. Moreover, the “membrane activity in the CX4/LCG channel compared with the CF channel” value in experiment [1] is “significantly higher membrane activity with the CF dye efflux assay”.
